{"source": "PubChem BioAssay (NCI)", "test_in_all_cases": "NCI tumour cell line growth inhibition, 48 h", "key": {"A549 NSCLC": {"system": "A549 NSCLC"}, "ACHN renal": {"system": "ACHN renal"}, "CAKI-1 renal": {"system": "CAKI-1 renal"}, "CCRF-CEM leukemia": {"system": "CCRF-CEM leukemia"}, "COLO 205 colon": {"system": "COLO 205 colon"}, "DLD-1 colon": {"system": "DLD-1 colon"}, "DMS 273 small cell lung": {"system": "DMS 273 small cell lung"}, "EKVX NSCLC": {"system": "EKVX NSCLC"}, "HCC-2998 colon": {"system": "HCC-2998 colon"}, "HCT-116 colon": {"system": "HCT-116 colon"}, "HCT-15 colon": {"system": "HCT-15 colon"}, "HOP-18 NSCLC": {"system": "HOP-18 NSCLC"}, "HOP-62 NSCLC": {"system": "HOP-62 NSCLC"}, "HOP-92 NSCLC": {"system": "HOP-92 NSCLC"}, "IGROV1 ovarian": {"system": "IGROV1 ovarian"}, "K-562 leukemia": {"system": "K-562 leukemia"}, "KM12 colon": {"system": "KM12 colon"}, "KM20L2 colon": {"system": "KM20L2 colon"}, "LOX IMVI melanoma": {"system": "LOX IMVI melanoma"}, "LXFL 529 NSCLC": {"system": "LXFL 529 NSCLC"}, "M14 melanoma": {"system": "M14 melanoma"}, "M19-MEL melanoma": {"system": "M19-MEL melanoma"}, "MALME-3M melanoma": {"system": "MALME-3M melanoma"}, "MOLT-4 leukemia": {"system": "MOLT-4 leukemia"}, "NCI-H226 lung": {"system": "NCI-H226 lung"}, "NCI-H23 lung": {"system": "NCI-H23 lung"}, "NCI-H522 lung": {"system": "NCI-H522 lung"}, "OVCAR-3 ovarian": {"system": "OVCAR-3 ovarian"}, "OVCAR-4 ovarian": {"system": "OVCAR-4 ovarian"}, "OVCAR-5 ovarian": {"system": "OVCAR-5 ovarian"}, "OVCAR-8 ovarian": {"system": "OVCAR-8 ovarian"}, "RPMI-8226 leukemia": {"system": "RPMI-8226 leukemia"}, "RXF 393 renal": {"system": "RXF 393 renal"}, "RXF-631 renal": {"system": "RXF-631 renal"}, "SF-268 CNS": {"system": "SF-268 CNS"}, "SF-295 CNS": {"system": "SF-295 CNS"}, "SF-539 CNS": {"system": "SF-539 CNS"}, "SK-MEL-2 melanoma": {"system": "SK-MEL-2 melanoma"}, "SK-MEL-28 melanoma": {"system": "SK-MEL-28 melanoma"}, "SK-MEL-5 melanoma": {"system": "SK-MEL-5 melanoma"}, "SK-OV-3 ovarian": {"system": "SK-OV-3 ovarian"}, "SN12C renal": {"system": "SN12C renal"}, "SNB-19 CNS": {"system": "SNB-19 CNS"}, "SNB-78 CNS": {"system": "SNB-78 CNS"}, "SR leukemia": {"system": "SR leukemia"}, "SW-620 colon": {"system": "SW-620 colon"}, "TK-10 renal": {"system": "TK-10 renal"}, "U251 CNS": {"system": "U251 CNS"}, "UACC-62 melanoma": {"system": "UACC-62 melanoma"}, "UO-31 renal": {"system": "UO-31 renal"}, "XF 498 CNS": {"system": "XF 498 CNS"}}, "note": "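Grown in 96-well plates, cells were treated for 48 hours with each compound at five concentrations. Insufficient inhibition: endpoint recorded as highest concentration tested. Definition used: TGI = concentration required for complete inhibition of growth.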", "data": [{"smiles": "COc1ccc(NC(=O)/C(=C/c2ccc(N(CCC#N)CCC#N)cc2)NC(=O)c2cc([N+](=O)[O-])ccc2Cl)cc1", "values": [{"measurement": "TGI", "setting": "A549 NSCLC", "result": 89.7, "unit": "µM"}, {"measurement": "TGI", "setting": "ACHN renal", "result": 59.5, "unit": "µM"}, {"measurement": "TGI", "setting": "CAKI-1 renal", "result": "> 100", "unit": "µM"}, {"measurement": "TGI", "setting": "CCRF-CEM leukemia", "result": "> 100", "unit": "µM"}, {"measurement": "TGI", "setting": "COLO 205 colon", "result": "> 100", "unit": "µM"}, {"measurement": "TGI", "setting": "DLD-1 colon", "result": "> 100", "unit": "µM"}, {"measurement": "TGI", "setting": "DMS 273 small cell lung", "result": "> 100", "unit": "µM"}, {"measurement": "TGI", "setting": "EKVX NSCLC", "result": "> 100", "unit": "µM"}, {"measurement": "TGI", "setting": "HCC-2998 colon", "result": "> 100", "unit": "µM"}, {"measurement": "TGI", "setting": "HCT-116 colon", "result": "> 100", "unit": "µM"}, {"measurement": "TGI", "setting": "HCT-15 colon", "result": "> 100", "unit": "µM"}, {"measurement": "TGI", "setting": "HOP-18 NSCLC", "result": "> 100", "unit": "µM"}, {"measurement": "TGI", "setting": "HOP-62 NSCLC", "result": "> 100", "unit": "µM"}, {"measurement": "TGI", "setting": "HOP-92 NSCLC", "result": "> 100", "unit": "µM"}, {"measurement": "TGI", "setting": "IGROV1 ovarian", "result": "> 100", "unit": "µM"}, {"measurement": "TGI", "setting": "K-562 leukemia", "result": "> 100", "unit": "µM"}, {"measurement": "TGI", "setting": "KM12 colon", "result": "> 100", "unit": "µM"}, {"measurement": "TGI", "setting": "KM20L2 colon", "result": "> 100", "unit": "µM"}, {"measurement": "TGI", "setting": "LOX IMVI melanoma", "result": "> 100", "unit": "µM"}, {"measurement": "TGI", "setting": "LXFL 529 NSCLC", "result": "> 100", "unit": "µM"}, {"measurement": "TGI", "setting": "M14 melanoma", "result": "> 100", "unit": "µM"}, {"measurement": "TGI", "setting": "M19-MEL melanoma", "result": "> 100", "unit": "µM"}, {"measurement": "TGI", "setting": "MALME-3M melanoma", "result": "> 100", "unit": "µM"}, {"measurement": "TGI", "setting": "MOLT-4 leukemia", "result": "> 100", "unit": "µM"}, {"measurement": "TGI", "setting": "NCI-H226 lung", "result": "> 100", "unit": "µM"}, {"measurement": "TGI", "setting": "NCI-H23 lung", "result": "> 100", "unit": "µM"}, {"measurement": "TGI", "setting": "NCI-H522 lung", "result": "> 100", "unit": "µM"}, {"measurement": "TGI", "setting": "OVCAR-3 ovarian", "result": "> 100", "unit": "µM"}, {"measurement": "TGI", "setting": "OVCAR-4 ovarian", "result": "> 100", "unit": "µM"}, {"measurement": "TGI", "setting": "OVCAR-5 ovarian", "result": "> 100", "unit": "µM"}, {"measurement": "TGI", "setting": "OVCAR-8 ovarian", "result": "> 100", "unit": "µM"}, {"measurement": "TGI", "setting": "RPMI-8226 leukemia", "result": "> 100", "unit": "µM"}, {"measurement": "TGI", "setting": "RXF 393 renal", "result": "> 100", "unit": "µM"}, {"measurement": "TGI", "setting": "RXF-631 renal", "result": "> 100", "unit": "µM"}, {"measurement": "TGI", "setting": "SF-268 CNS", "result": "> 100", "unit": "µM"}, {"measurement": "TGI", "setting": "SF-295 CNS", "result": 73.2, "unit": "µM"}, {"measurement": "TGI", "setting": "SF-539 CNS", "result": 50.8, "unit": "µM"}, {"measurement": "TGI", "setting": "SK-MEL-2 melanoma", "result": "> 100", "unit": "µM"}, {"measurement": "TGI", "setting": "SK-MEL-28 melanoma", "result": "> 100", "unit": "µM"}, {"measurement": "TGI", "setting": "SK-MEL-5 melanoma", "result": "> 100", "unit": "µM"}, {"measurement": "TGI", "setting": "SK-OV-3 ovarian", "result": "> 100", "unit": "µM"}, {"measurement": "TGI", "setting": "SN12C renal", "result": "> 100", "unit": "µM"}, {"measurement": "TGI", "setting": "SNB-19 CNS", "result": "> 100", "unit": "µM"}, {"measurement": "TGI", "setting": "SNB-78 CNS", "result": "> 100", "unit": "µM"}, {"measurement": "TGI", "setting": "SR leukemia", "result": "> 100", "unit": "µM"}, {"measurement": "TGI", "setting": "SW-620 colon", "result": "> 100", "unit": "µM"}, {"measurement": "TGI", "setting": "TK-10 renal", "result": "> 100", "unit": "µM"}, {"measurement": "TGI", "setting": "U251 CNS", "result": "> 100", "unit": "µM"}, {"measurement": "TGI", "setting": "UACC-62 melanoma", "result": "> 100", "unit": "µM"}, {"measurement": "TGI", "setting": "UO-31 renal", "result": "> 100", "unit": "µM"}, {"measurement": "TGI", "setting": "XF 498 CNS", "result": "> 100", "unit": "µM"}]}]}
